Measured values from patent EP4806891A1 (Kangbaida (Sichuan) Biotechnology Co., Ltd., priority 2023, dated 2025).
pIC50: −log10 of the molar value.

Tests used:
IL-6 = test: In vivo inhibition assay of IL-6; parameters: species or system C57BL/6 female mice; conditions: Mus musculus, ip; mice, test compound 1 mg/kg by gavage, 25 µg R848 intraperitoneally 1 h later, serum IL-6 2 h later; read-out: IL-6 inhibition rate (intraperitoneal injection after 1 h)
Description: In vivo inhibition assay of IL-6
Experimental materials: Preparation of compound solutions: R848 was prepared with pure water (sterilized), with a final concentration of 25 µg/100 µL; the test compound was prepared with sodium citrate buffer at pH = 3, with a final concentration of 0.1 mg/mL.
Experimental animals: C57BL/6 female mice were purchased from GemPharmatech, aged 6-8 weeks.
Experimental methods: C57BL/6 female mice were randomly divided into a blank group, control group, and experimental group, with 8 in each group.
Blank group: Blood was collected from the mice after 12 h of fasting.
Control group: The mice were administered sodium citrate buffer at pH = 3 by gavage after 12 hours of fasting, and the remaining procedures were consistent with those of the experimental group.
Experimental group: After fasting for 12 h, the mice were administered with the test compound (1 mg/kg) by gavage, followed by an intraperitoneal injection of 25 µg R848 (purchased from MCE) 1 h later; 2 h later, the eyeballs were removed for blood collection, the serum was allowed to stand at room temperature for 30 min, then centrifuged for 10 min (3000 rpm), the supernatant was collected, and the serum IL-6 concentration was measured using an IL-6 ELISA kit. The IL-6 inhibition rate was calculated based on the serum IL-6 concentrations of the control and experimental groups. Calculation formula: inhibition rate = (C2-C3)/(C2-C1)×100%. • C1: serum IL-6 concentration of the blank group; • C2: serum IL-6 concentration of the control group; • C3: serum IL-6 concentration of the experimental group.
Four additional groups of experiments were performed separately according to the above experimental procedures, and the differences between these four groups and the above experiment were respectively: "25 µg R848 (purchased from MCE) was intraperitoneally injected after 4 h", "25 µg R848 (purchased from MCE) was intraperitoneally injected after 8 h", "25 µg R848 (purchased from MCE) was intraperitoneally injected after 16 h", and "25 µg R848 (purchased from MCE) was intraperitoneally injected after 24 h". Table 2: In vivo inhibition assay of IL-6

HEK-Blue-hTLR9 cells = molecular target: T1, HEK-Blue-hTLR9 cells (Homo sapiens, UniProt Q9NR96); test: HEK-Blue-hTLR9 cell inhibition assay; format: cell-based; conditions: ODN2006 1 µM, 16 h, OD 620 nm, read-out: TLR9 IC50
T1 construct: expressed in transfected cells; host or cells: HEK-Blue-hTLR9 cells (HEK293-derived reporter line)
T1 sequence (Q9NR96 26-1032): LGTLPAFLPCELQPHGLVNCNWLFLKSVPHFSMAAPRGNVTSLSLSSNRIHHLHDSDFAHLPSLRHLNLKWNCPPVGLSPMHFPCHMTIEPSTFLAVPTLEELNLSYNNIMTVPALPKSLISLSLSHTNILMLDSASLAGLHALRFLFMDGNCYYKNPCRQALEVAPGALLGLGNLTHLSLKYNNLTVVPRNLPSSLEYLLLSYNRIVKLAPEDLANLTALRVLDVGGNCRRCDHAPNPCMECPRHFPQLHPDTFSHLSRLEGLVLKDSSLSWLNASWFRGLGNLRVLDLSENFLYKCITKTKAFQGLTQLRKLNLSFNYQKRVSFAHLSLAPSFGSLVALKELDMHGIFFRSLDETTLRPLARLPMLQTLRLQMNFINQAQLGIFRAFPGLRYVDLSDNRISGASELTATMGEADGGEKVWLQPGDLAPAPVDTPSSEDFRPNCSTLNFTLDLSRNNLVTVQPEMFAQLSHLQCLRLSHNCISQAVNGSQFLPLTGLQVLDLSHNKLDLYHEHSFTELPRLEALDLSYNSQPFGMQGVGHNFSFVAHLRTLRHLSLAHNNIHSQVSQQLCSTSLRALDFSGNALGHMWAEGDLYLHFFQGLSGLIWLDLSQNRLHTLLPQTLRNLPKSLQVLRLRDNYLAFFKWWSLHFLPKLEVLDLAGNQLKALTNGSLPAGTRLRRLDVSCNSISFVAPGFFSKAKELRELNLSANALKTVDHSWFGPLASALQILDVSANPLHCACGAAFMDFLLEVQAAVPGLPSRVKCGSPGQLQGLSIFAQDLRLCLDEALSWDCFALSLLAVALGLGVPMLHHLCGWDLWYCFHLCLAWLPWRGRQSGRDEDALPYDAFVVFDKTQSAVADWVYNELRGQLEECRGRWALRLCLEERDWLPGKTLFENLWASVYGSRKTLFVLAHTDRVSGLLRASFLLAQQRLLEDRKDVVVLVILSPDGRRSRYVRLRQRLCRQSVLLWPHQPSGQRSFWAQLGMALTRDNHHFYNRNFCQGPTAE
How it was run: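 Cells were pre-incubated 4 h, then co-treated 16 h at 37 °C with compound (10 doses, 0.5–10000 nM final) plus R848 (0.8 µM for TLR7, 3 µM for TLR8) or ODN2006 (1 µM, TLR9). Reporter OD620 gave inhibition relative to DMSO blank and agonist-only controls; IC50 came from curve fitting.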

Row | Compound | pIC50 (HEK-Blue-hTLR9 cells) | inhibition at 1 mg/kg (IL-6) [%]
1 | CN1CCC(c2nnc([C@]34CN(c5ccc(OC(F)(F)F)c6ncccc56)C[C@@]3(C(F)(F)F)C4)o2)CC1 [Compound 64, 2-(1-methylpiperidin-4-yl)-5-((1S,5R)-5-(trifluoromethyl)-3-(8-(trifluoromethoxy)quinolin-5-yl)-3-azabicyclo[3.1.0]hexan-1-yl)-1,3,4-oxadiazole] |  | > 70
2 | CN1CCC(Oc2nnc([C@]34CN(c5ccc(C#N)c6ncnn56)C[C@@]3(C(F)(F)F)C4)o2)CC1 [Compound 97, 5-((1S,5R)-1-(5-((1-methylpiperidin-4-yl)oxy)-1,3,4-oxadiazol-2-yl)-5-(trifluoromethyl)-3-azabicyclo[3.1.0]hexan-3-yl)-[1,2,4]triazolo[1,5-a]pyridine-8-carbonitrile] |  | > 90

Second part, led by results:

Row | pIC50 (HEK-Blue-hTLR9 cells) | Compound | inhibition at 1 mg/kg (IL-6) [%]
3 | < 6.00 | CN1CC(Cc2nnc([C@]34CN(c5ccc(C#N)n6ncc(F)c56)C[C@@]3(C(F)(F)F)C4)o2)C1 [Compound 30, 3-fluoro-4-((1S,5R)-1-(5-((1-methylazetidin-3-yl)methyl)-1,3,4-oxadiazol-2-yl)-5-(trifluoromethyl)-3-azabicyclo[3.1.0]hexan-3-yl)pyrazolo[1,5-a]pyridine-7-carbonitrile] | > 90
4 | < 6.00 | CN1CC(Cc2nnc([C@]34CN(c5ccc(C(F)(F)F)c6ncccc56)C[C@@]3(C(F)(F)F)C4)o2)C1 [Compound 95, 2-((1-methylazetidin-3-yl)methyl)-5-((1S,5R)-5-(trifluoromethyl)-3-(8-(trifluoromethyl)quinolin-5-yl)-3-azabicyclo[3.1.0]hexan-1-yl)-1,3,4-oxadiazole] | > 90
5 | < 6.00 | CN1CCC(c2nnc([C@]34CN(c5ccc(C#N)n6nccc56)C[C@@]3(C(F)(F)F)C4)o2)CC1 [Compound 59, 4-((1S,5R)-1-(5-(1-methylpiperidin-4-yl)-1,3,4-oxadiazol-2-yl)-5-(trifluoromethyl)-3-azabicyclo[3.1.0]hexan-3-yl)pyrazolo[1,5-a]pyridine-7-carbonitrile] | > 80
6 | < 6.00 | CN1CCC(c2nnc([C@]34CN(c5ccc(C#N)n6ncc(F)c56)C[C@@]3(C(F)(F)F)C4)o2)CC1 [Compound 57, 3-fluoro-4-((1S,5R)-1-(5-(1-methylpiperidin-4-yl)-1,3,4-oxadiazol-2-yl)-5-(trifluoromethyl)-3-azabicyclo[3.1.0]hexan-3-yl)pyrazolo[1,5-a]pyridine-7-carbonitrile] | > 90
